In patent US20240208896A1, “PRODRUGS OF KV7 CHANNEL OPENERS” (Xyzagen, Inc., priority 2021, published 2024):
pEC50: −log10 of the molar value. ≈ marks a conversion by molar mass, not a printed value. Read-outs that look alike come from different tables or passages of the source.

Assays:
[1] = in solvent, exposed to light; known; cited from earlier work
[2] = known value, cited from earlier work
[3] = Pharmacokinetics of ezogabine prodrugs in rat (IV, IM, PO)
Procedure: (§1) Blood was diluted by 10% with these stabilizers.
(§2) Extraction of the molecules was conducted by taking a 50 uL aliquot of plasma and adding 200 uL of acetonitrile containing 200 ng/mL tolbutamide as the internal standard. Samples were precipitated in a 96 well plate, centrifuges and an aliquot transferred to a new plate, dried down under heat and nitrogen and then reconstituted in the initial mobile phase conditions of the LC-MS/MS method. […] A standard curve was prepared from 5000 ng/mL to 1 ng/mL for each analyte. Concentration data from the bioanalytical run was analyzed by Phoenix Winnonlin version 8 for noncompartmental PK analysis, plotting of concentration time curves and tabulation of PK parameters.
150 uL of blood were collected at predesignated time points. At completion of the study animals were asphyxiated by carbon dioxide gas and exsanguinated for euthanasia.

[4] = patients receiving ezogabine (POTIGA); Potiga label; cited from earlier work
[5] = Pharmacokinetics of ezogabine prodrugs in mouse (SC, PO); conditions: male mice, PO 20 mg/kg, analyte Cmpd 1
Procedure: as §1
as §2, with “noncompartmental sparse sampling” for “noncompartmental”
Animals were asphyxiated by carbon dioxide gas, blood was collected by cardiac stick and they were euthanized by cervical dislocation.

[6] = format: physicochemical; conditions: for % Conversion to dimer / Concentration of dimer: 8 mg/mL in SGF, 38° C.
Text: The structure of the dimer is presented.

[7] = Acid and organic solution stability, HPLC-UV 250 nm; conditions: 5 mg/mL
Procedure: An HPLC-UV Vis method was developed using 0.1% Formic acid in water as mobile phase A and 0.1% Formic acid in acetonitrile as mobile Phase B. A gradient method was developed ramping from 10% A to 90% B over 8 minutes and then returning to 10% A at 8.5 minutes on a 4.6×50 mm Zorbax C-18 column. Injections of 10 uL of stability solutions were injected for analyte detection.
[…] Aliquots were collected at serial time points and then diluted to a nominal concentration of 100 ug/mL for injection to the HPLC and 250 nm monitored by the diode array detector. Data at approximately 10 days is presented.
Aliquots were collected at serial time points and then diluted to a nominal concentration of 100 ug/mL for injection to the HPLC and 250 nm monitored by the diode array detector.
(§3) It was also evaluated at 2 N HCl at 37° C. Aliquots were collected at serial time points and then diluted to a nominal concentration of 100 ug/mL for injection to the HPLC and 250 nm monitored by the diode array detector.
as §3, §3, §3

Human Kv7.2/7.3 = Human Kv7.2/7.3 (Homo sapiens, UniProt O43525+O43526); assay: In vitro screen of Kv7.2/7.3 voltage gated potassium channels (FluxOR, FLIPR); format: cell-based
Chain of Human Kv7.2/7.3 (O43526 whole entry): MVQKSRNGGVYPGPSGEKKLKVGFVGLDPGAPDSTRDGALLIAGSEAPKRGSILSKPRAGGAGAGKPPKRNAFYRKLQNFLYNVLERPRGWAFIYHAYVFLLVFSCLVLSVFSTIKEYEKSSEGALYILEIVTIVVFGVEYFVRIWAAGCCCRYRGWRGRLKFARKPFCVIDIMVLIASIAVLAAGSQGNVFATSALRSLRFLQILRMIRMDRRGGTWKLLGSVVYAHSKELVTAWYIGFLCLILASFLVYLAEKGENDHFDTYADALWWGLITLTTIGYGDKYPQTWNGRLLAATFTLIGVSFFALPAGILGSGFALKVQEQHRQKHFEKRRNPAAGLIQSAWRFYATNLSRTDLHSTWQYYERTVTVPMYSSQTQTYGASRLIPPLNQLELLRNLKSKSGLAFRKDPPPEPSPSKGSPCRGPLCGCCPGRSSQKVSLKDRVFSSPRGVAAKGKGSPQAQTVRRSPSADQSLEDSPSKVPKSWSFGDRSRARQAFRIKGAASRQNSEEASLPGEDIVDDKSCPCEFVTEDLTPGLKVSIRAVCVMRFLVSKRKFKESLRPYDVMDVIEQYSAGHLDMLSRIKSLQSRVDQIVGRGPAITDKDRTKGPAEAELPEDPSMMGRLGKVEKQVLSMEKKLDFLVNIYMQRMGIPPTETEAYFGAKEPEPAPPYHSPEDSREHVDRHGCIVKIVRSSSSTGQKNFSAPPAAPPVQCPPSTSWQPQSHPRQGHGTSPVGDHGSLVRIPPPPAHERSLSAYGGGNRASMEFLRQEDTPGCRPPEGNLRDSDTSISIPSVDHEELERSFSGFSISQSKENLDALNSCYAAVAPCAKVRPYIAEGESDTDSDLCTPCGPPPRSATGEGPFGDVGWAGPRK
Chain of Human Kv7.2/7.3 (O43525 whole entry): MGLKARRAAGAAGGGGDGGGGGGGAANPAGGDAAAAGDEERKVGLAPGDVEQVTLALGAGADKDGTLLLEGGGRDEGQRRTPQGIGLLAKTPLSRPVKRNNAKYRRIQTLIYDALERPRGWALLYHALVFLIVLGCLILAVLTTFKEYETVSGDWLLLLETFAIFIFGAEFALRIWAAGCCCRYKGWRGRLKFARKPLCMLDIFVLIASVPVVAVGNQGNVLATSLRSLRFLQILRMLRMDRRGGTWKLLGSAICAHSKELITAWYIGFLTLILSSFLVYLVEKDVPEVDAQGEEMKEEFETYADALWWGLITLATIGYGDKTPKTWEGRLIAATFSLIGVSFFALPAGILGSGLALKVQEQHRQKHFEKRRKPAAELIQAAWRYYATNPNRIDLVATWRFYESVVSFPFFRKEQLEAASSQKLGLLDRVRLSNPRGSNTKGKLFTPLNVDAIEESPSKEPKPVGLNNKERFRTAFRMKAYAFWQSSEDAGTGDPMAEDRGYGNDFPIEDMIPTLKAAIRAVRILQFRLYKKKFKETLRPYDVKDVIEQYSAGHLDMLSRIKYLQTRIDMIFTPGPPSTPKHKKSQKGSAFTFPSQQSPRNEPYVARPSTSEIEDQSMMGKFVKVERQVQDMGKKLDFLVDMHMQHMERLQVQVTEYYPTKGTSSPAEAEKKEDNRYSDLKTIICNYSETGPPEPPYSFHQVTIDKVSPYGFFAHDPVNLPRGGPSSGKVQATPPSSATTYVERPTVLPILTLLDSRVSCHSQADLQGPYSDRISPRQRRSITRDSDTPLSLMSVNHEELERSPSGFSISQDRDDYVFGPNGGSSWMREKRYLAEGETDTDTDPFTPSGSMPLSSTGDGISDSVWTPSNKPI
Procedure: Human Kv7.2/7.3 cells are harvested, counted and seeded in black, clear-bottomed 96 well plates at a density of 50,000 cells per well in 100 μl volume and incubated overnight. The following day, media was removed and 40 μl of loading buffer (4.895 mL HBSS:HEPES, 50 μL probenecid, 50 μL power load, 5 μl FluxOR reagent) was added and incubated at room temperature for 30 minutes. After incubation loading buffer was removed and 40 μl of assay buffer added (4.45 ml HBSS:HEPES, 500 μl FluxOR assay buffer and 50 μL probenecid) and incubated for 10 minutes.

[8] = Benchtop solvent stability exposed to light, HPLC-UV 230 nm, up to 7 days; format: physicochemical; conditions: over 4 days
Procedure: Compounds in solvent were left on the benchtop exposed to light for up to 7 days since it is known that Compound 1 will degrade with light within 3-7 days.
Stability was assessed by taking an aliquot from the solubility vials at each test day. A single replicate was injected for each test condition.
Samples were injected onto an HPLC system with an aqueous mobile phase and acetonitrile organic phase and compounds were separated on a C8 50×2 mm column. Wavelength 230 nm was monitored for absorption and integrated for peak area while the mass spectrometer was used to confirm mass. Samples were tested on Day 1 and on subsequent days through Day 7.

[9] = 1000 ng/mL
Procedure: Plasma was collected by the biomaterial vendor and kept frozen at −20° C.
The samples were analyzed by HPLC separation and mass spectrometry detection for prodrug amount, relative to a baseline time 0 control sample. Triplicate samples were generated at each time point and the peak area response was averaged and converted to a percent of baseline control.

[10] = test system: MES induced seizures in Rat; assay: SD rat MES test after IM administration; format: in vivo; conditions: SD rats, IM 75 mg/kg
Procedure: All treatments were at 0.083, 0.25, 0.5, 1, 2, 4, and 8 hours prior to the administration of MES test, where 6 seconds where 6 seconds without a seizure was considered protected.

[11] = Solvent solubility assessment by visual inspection; format: physicochemical
Procedure: Compounds were weighed and placed into a 4 dram vials and solvents were added to the target concentration. Compounds were vortex and visually inspected for particulates and considered soluble if clear upon visual inspection with and without magnification. Solubility was reported as either greater than (>) or less than (<) from the prepared concentration. […] It was evaluated at 10 mg/mL in 0.1 N NaCl and was freely soluble. It was evaluate at 1 mg/mL in 0.1 N NaOH and 0.1 N Na2HPO4 and was freely soluble. In ethanol and methanol it was freely soluble at a concentration of 75 mg/mL. […] It was freely soluble at 75 mg/mL in methanol and ethanol. It was soluble at 1 mg/mL in 1N HCl.

[12] = Rat PK at equimolar dose to Ezogabine (20 mg/kg) in 0.5% methylcellulose; conditions: male cannulated rats; equimolar to Ezogabine 20 mg/kg; 0.5% methylcellulose; analyte the dosed prodrug
Procedure: (§4) Blood samples were collected at the same time points over 24 hours to generate a concentration time profile. Two male rats were dosed per group. Plasma samples were analyzed by LC/MS/MS and the resulting concentration time profiles and PK parameters are provided.
as §4, §4

[13] = test system: formalin inflammatory model; assay: Formalin inflammatory pain model (hind paw flick/lick); format: in vivo; conditions: male CD-1 mouse; 100 mg/kg SC 30 minutes before 5% formalin; both phases (0-10 and 15-40 min)
Procedure: Compound 4 was assessed in the […] formalin inflammatory model. The number of flicks/licks of a male CD-1 mouse in the acute phase 0-10 minute and the inflammatory phase from 15-40 min after intraplantar administration of 50 μL of 5% formalin was recorded. […] Data is presented over the duration of the observation periods in 2 minute bins.

SMILES: CCOC(=O)Nc1ccc(NCc2ccc(F)cc2)cc1N [Compound 1, Ezogabine]
- Time to degradation with light [1]: 3 to 7 days
- Solubility ([2]; 0.1N NaCl): 0.04 mg/mL (≈ 0.132 mM)
- Solubility ([2]; 0.1N NaOH): 0.04 mg/mL (≈ 0.132 mM)
- Solubility ([2]; Ethanol): 20 mg/mL (≈ 65.9 mM)
- Solubility ([2]; Methanol): 54 mg/mL (≈ 178 mM)
- Solubility ([2]; Water): 0.05 mg/mL (≈ 0.165 mM)
- Solubility ([2]; listed as 0.1 Na2HPO4, determined in 0.1N K2HPO4): 0.18 mg/mL (≈ 0.593 mM)
- Cmax/D ([3]; male SD rat, PO 20 mg/kg, analyte Cmpd 1): 44.8 ng/mL/mg/kg
- AUClast/D ([3]; male SD rat, PO 20 mg/kg, analyte Cmpd 1, 24 h): 280 ng·h/mL/mg/kg
- Adverse reaction: abnormal coordination [4]: 7%
- Adverse reaction: aphasia [4]: 4%
- Adverse reaction: asthenia [4]: 5%
- Adverse reaction: balance disorder [4]: 4%
- Adverse reaction: blurred vision [4]: 5%
- Adverse reaction: confusional state [4]: 9%
- Adverse reaction: diplopia [4]: 7%
- Adverse reaction: disturbance in attention [4]: 6%
- Adverse reaction: dizziness [4]: 23%
- Adverse reaction: dysarthria [4]: 4%
- Adverse reaction: fatigue [4]: 15%
- Adverse reaction: gait disturbance [4]: 4%
- Adverse reaction: memory impairment [4]: 6%
- Adverse reaction: somnolence [4]: 22%
- Adverse reaction: tremor [4]: 8%
- Adverse reaction: vertigo [4]: 8%
- Cmax/D [5]: 148 ng/mL/mg/kg
- AUClast/D ([5]; 6 h): 190 ng·h/mL/mg/kg
- % Conversion to dimer ([6]; Time 0): 0%
- Concentration of dimer ([6]; Time 0): 0.00 ng/mL
- % Conversion to dimer ([6]; Time 1 h): 0.250%
- Concentration of dimer ([6]; Time 1 h): 19.5 ng/mL
- % Conversion to dimer ([6]; Time 4 h): 7.95%
- Concentration of dimer ([6]; Time 4 h): 623 ng/mL
- % Conversion to dimer ([6]; Time 8 h): 25.2%
- Concentration of dimer ([6]; Time 8 h): 1980 ng/mL
- Stability at low pH ([6]; low pH (1 N HCl) and simulated gastric fluid): degrades and forms a chromophore dimer
- % Remaining ([7]; 0.1N HCl, room temp., normal light, 267 h): 50.7%
- % Remaining ([7]; 1N HCl, room temp., normal light, 267 h): 68.2%
- % Remaining ([7]; Acetonitrile, room temp., normal light, 219 h): 44.9%
- % Remaining ([7]; Methanol, room temp., normal light, 267 h): 41.3%
- Colour of stability solution ([7]; acid solutions, room temperature): turning light purple (indicating degradation) by Day 2
- Colour of stability solution ([7]; organic solvents, room temperature): did not begin turning purple until Day 7
- pEC50 (Human Kv7.2/7.3): 5.80

SMILES: CCOC(=O)Nc1ccc(NCc2ccc(F)cc2)cc1NC(=O)[C@@H](N)CCCCN [Compound 4]
- Reduction in peak area ([8]; 0.1N NaOH): > 50%
- Stability in solvent ([8]; all test conditions except 0.1 N NaOH): appears stable
- Time by which prodrug is degraded in plasma ([9]; mouse): ≤ 6 h
- Plasma stability ([9]; rat, 6 h): stable through 6 hours
- Percent remaining in plasma ([9]; rat, plasma, 23 h): below 50%
- Protection from MES induced seizures ([10]; 2 through 8 hours post dose): fully protected
- Protection from MES induced seizures ([10]; 1 h post dose): almost fully protected
- Solubility ([11]; 0.1N HCl): >20 mg/mL
- Solubility ([11]; 0.1 N Na2HPO4, aqueous buffer, thermodynamic from solid, read-out: Solubility (freely soluble at tested concentration)): > 1 mg/mL
- Solubility ([11]; 0.1N NaCl): >10 mg/mL
- Solubility ([11]; 0.1 N NaCl, saline or isotonic, thermodynamic from solid, read-out: Solubility (freely soluble at tested concentration)): > 10 mg/mL
- Solubility ([11]; 0.1N NaOH): >1 mg/mL
- Solubility ([11]; 0.1 N NaOH, aqueous buffer, thermodynamic from solid, read-out: Solubility (freely soluble at tested concentration)): > 1 mg/mL
- Solubility ([11]; 0.1 Na2HPO4): >1 mg/mL
- Solubility ([11]; Ethanol): >75 mg/mL
- Solubility ([11]; Methanol): >75 mg/mL
- Solubility ([11]; Water): >20 mg/mL
- Solubility ([11]; ethanol, organic solvent or mixture, thermodynamic from solid, read-out: Solubility (freely soluble at tested concentration)): > 75 mg/mL
- Solubility ([11]; methanol, organic solvent or mixture, thermodynamic from solid, read-out: Solubility (freely soluble at tested concentration)): > 75 mg/mL
- Solubility ([11]; saline or isotonic, 0.9% w/v NaCl, for in vivo studies, read-out: Solubility (formulated as freely soluble solution)): ≥ 150 mg/mL
- Solubility ([11]; simulated gastric fluid, thermodynamic from solid, 0.1N HCl, read-out: Solubility (freely soluble at tested concentration)): > 20 mg/mL
- Solubility ([11]; water, thermodynamic from solid, read-out: Solubility (freely soluble at tested concentration)): > 20 mg/mL
- Exposure of the prodrug itself in systemic circulation ([3]; rat, in vivo, po): slightly more detectable
- AUClast/D [12]: 6.26 ng·h/mL/mg/kg
- Cmax/D [12]: 2.34 ng/mL/mg/kg
- Colour of stability solution [7]: remained clear and colorless through Day 18
- Ezogabine Area (formed from the prodrug) ([7]; 0.1N HCl, room temp., normal light, 269 h): 0 mAU
- Ezogabine Area (formed from the prodrug) ([7]; 1N HCl, room temp., normal light, 269 h): 0 mAU
- Ezogabine Area (formed from the prodrug) ([7]; 2N HCl 37C, 436 h): 167 mAU
- Ezogabine Area (formed from the prodrug) ([7]; 2N HCl, room temp., normal light, 269 h): 38 mAU
- Ezogabine Area (formed from the prodrug) ([7]; Methanol, room temp., normal light, 437 h): 0 mAU
- Ezogabine Area (formed from the prodrug) ([7]; PBS, room temp., normal light, 435 h): 0 mAU
- Degradation / conversion to ezogabine in solution ([7]; acidic solutions and organic solvents, up to 3 weeks): very little degradation to ezogabine
- % Remaining ([7]; 437 h): 98.5%
- % Remaining ([7]; buffer, 435 h): 99.2%
- % Remaining ([7]; buffer, 436 h): 94.9%
- Activity against the primary target of Kv7.2/7.3 (Human Kv7.2/7.3; Human Kv7.2/7.3 cells, FluxOR fluorescence, 0.03 to 30 μM): inactive
- Reduction in behavioral response (flicks/licks) compared to vehicle [13]: 50%
